From the NIST ThermoML archive (doi:10.1016/j.jct.2012.07.007)

Assays:
[1] = xn = mol fraction of the nth substance listed; conditions: 101 kPa, Liquid; for speed of sound: Linear variable-path acoustic interferometer; for mass density: Vibrating tube method
[2] = excess molar enthalpy (molar enthalpy of mixing); xn = mol fraction of the nth substance listed; conditions: 298.15 K, 101 kPa, Liquid, 2-drop calorimetry

Cc1ccncc1 [4-methylpyridine] + CCn1cc[n+](C)c1.F[B-](F)(F)F
[1]
Conditions | mass density, 293.15 K [kg/m3] | mass density, 298.15 K [kg/m3] | mass density, 303.15 K [kg/m3] | mass density, 308.15 K [kg/m3] | speed of sound, 293.15 K [m/s] | speed of sound, 298.15 K [m/s] | speed of sound, 303.15 K [m/s] | speed of sound, 308.15 K [m/s]
x2 = 0.1211 | 1022.19 | 1017.25 | 1012.54 | 1008.4 | 1485 | 1464.4 | 1448.9 | 1428.2
x2 = 0.1734 | 1048.92 | 1043.93 | 1039.26 | 1035.43 | 1499.5 | 1479.3 | 1464.5 | 1443.7
x2 = 0.2215 | 1072.35 | 1067.26 | 1062.71 | 1059.13 | 1512.2 | 1492.7 | 1478.1 | 1457.6
x2 = 0.2738 | 1096.49 | 1091.32 | 1086.94 | 1083.63 | 1525 | 1506.5 | 1492.3 | 1472.9
x2 = 0.3226 | 1117.74 | 1112.6 | 1108.38 | 1105.18 | 1536.7 | 1519.3 | 1505.1 | 1486.3
x2 = 0.3709 | 1137.61 | 1132.52 | 1128.45 | 1125.39 | 1548 | 1531.8 | 1517.3 | 1499.9
x2 = 0.4215 | 1157.13 | 1152.2 | 1148.31 | 1145.11 | 1558.7 | 1543.8 | 1529.7 | 1514.7
x2 = 0.4721 | 1175.31 | 1170.56 | 1166.92 | 1163.65 | 1568.6 | 1554.4 | 1541.8 | 1528.9
x2 = 0.5207 | 1191.56 | 1186.91 | 1183.59 | 1180.05 | 1576.9 | 1564.8 | 1553 | 1542.6
x2 = 0.5728 | 1207.52 | 1203.15 | 1200.15 | 1196.14 | 1585.7 | 1573.8 | 1564.2 | 1557.1
x2 = 0.6218 | 1221.15 | 1217.12 | 1214.3 | 1209.95 | 1593.2 | 1582.3 | 1574.8 | 1570.3
x2 = 0.6731 | 1234.15 | 1230.36 | 1227.81 | 1222.97 | 1600.4 | 1589.4 | 1585.1 | 1582.7
x2 = 0.7224 | 1245.2 | 1241.78 | 1239.32 | 1234.16 | 1607 | 1595.7 | 1594.6 | 1593.7
x2 = 0.7743 | 1255.49 | 1252.28 | 1249.84 | 1244.37 | 1613 | 1601.8 | 1602.4 | 1603.4
x2 = 0.8203 | 1263.45 | 1260.27 | 1257.85 | 1252.23 | 1617.3 | 1606.3 | 1608.5 | 1609.8
x2 = 0.8717 | 1270.96 | 1267.85 | 1265.24 | 1259.65 | 1622.3 | 1610.6 | 1612.2 | 1612.8
x2 = 0.9111 | 1275.81 | 1272.56 | 1269.8 | 1264.37 | 1625.3 | 1613.4 | 1613.3 | 1611.5
x2 = 0.9312 | 1278 | 1274.64 | 1271.69 | 1266.47 | 1626.7 | 1614.9 | 1613.3 | 1609.7

[2]
Conditions | excess molar enthalpy [kcal/mol]
x2 = 0.111 | -0.0311
x2 = 0.1679 | -0.0454
x2 = 0.2098 | -0.0558
x2 = 0.2387 | -0.0624
x2 = 0.2909 | -0.0731
x2 = 0.3267 | -0.0788
x2 = 0.379 | -0.0873
x2 = 0.4167 | -0.0925
x2 = 0.4834 | -0.0997
x2 = 0.5267 | -0.104
x2 = 0.5908 | -0.106
x2 = 0.615 | -0.106
x2 = 0.6786 | -0.101
x2 = 0.7234 | -0.0974
x2 = 0.7945 | -0.0841
x2 = 0.8346 | -0.0723
x2 = 0.889 | -0.0539
x2 = 0.9267 | -0.0389

c1ccncc1 [pyridine] + CCn1cc[n+](C)c1.F[B-](F)(F)F
[1]
Conditions | mass density, 293.15 K [kg/m3] | mass density, 298.15 K [kg/m3] | mass density, 303.15 K [kg/m3] | mass density, 308.15 K [kg/m3] | speed of sound, 293.15 K [m/s] | speed of sound, 298.15 K [m/s] | speed of sound, 303.15 K [m/s] | speed of sound, 308.15 K [m/s]
x2 = 0.1225 | 1057.86 | 1053.89 | 1049.31 | 1044.82 | 1486.4 | 1466.7 | 1450.1 | 1431.5
x2 = 0.1781 | 1085.74 | 1081.91 | 1077.49 | 1073.08 | 1504.8 | 1486.7 | 1470.9 | 1453.6
x2 = 0.2349 | 1111.05 | 1107.24 | 1102.93 | 1098.58 | 1521.5 | 1505.5 | 1489.4 | 1473.3
x2 = 0.2787 | 1128.56 | 1124.75 | 1120.49 | 1116.15 | 1533.4 | 1517.7 | 1502.2 | 1487.6
x2 = 0.3215 | 1144.24 | 1140.37 | 1136.25 | 1131.85 | 1544 | 1528.8 | 1513.9 | 1499.2
x2 = 0.3716 | 1160.99 | 1156.91 | 1152.96 | 1148.63 | 1555.6 | 1541.1 | 1525 | 1512.2
x2 = 0.4229 | 1176.47 | 1172.38 | 1168.48 | 1164.16 | 1565.7 | 1550.9 | 1536.1 | 1523.5
x2 = 0.4723 | 1189.98 | 1185.87 | 1182.12 | 1177.75 | 1574 | 1560.4 | 1544.5 | 1533.1
x2 = 0.5213 | 1202.28 | 1198.15 | 1194.47 | 1190.17 | 1582.4 | 1568.3 | 1552.8 | 1541.1
x2 = 0.5731 | 1214.14 | 1209.97 | 1206.44 | 1202.2 | 1589.6 | 1575.5 | 1561.4 | 1549.5
x2 = 0.6212 | 1224.23 | 1220.11 | 1216.67 | 1212.48 | 1596.2 | 1582.6 | 1568.1 | 1557.4
x2 = 0.6719 | 1234.08 | 1230 | 1226.63 | 1222.55 | 1603.2 | 1589.2 | 1575.5 | 1564.3
x2 = 0.7224 | 1243.17 | 1239.16 | 1235.85 | 1231.85 | 1609.3 | 1595.2 | 1583.1 | 1571.5
x2 = 0.7737 | 1251.76 | 1247.81 | 1244.54 | 1240.61 | 1615.2 | 1601.3 | 1589.7 | 1578.5
x2 = 0.8219 | 1259.31 | 1255.42 | 1252.16 | 1248.26 | 1619.9 | 1607 | 1595.8 | 1584.8
x2 = 0.8764 | 1267.33 | 1263.49 | 1260.17 | 1256.28 | 1625.1 | 1612.2 | 1602 | 1590.5
x2 = 0.9223 | 1273.71 | 1269.86 | 1266.47 | 1262.53 | 1628.2 | 1616 | 1605.5 | 1594
x2 = 0.9349 | 1275.41 | 1271.55 | 1268.13 | 1264.16 | 1628.9 | 1616.8 | 1606.2 | 1594.8

[2]
Conditions | excess molar enthalpy [kcal/mol]
x2 = 0.1025 | -0.0352
x2 = 0.1335 | -0.0449
x2 = 0.1727 | -0.0555
x2 = 0.2121 | -0.067
x2 = 0.2654 | -0.0785
x2 = 0.3078 | -0.087
x2 = 0.3587 | -0.0968
x2 = 0.4112 | -0.101
x2 = 0.4632 | -0.107
x2 = 0.4956 | -0.108
x2 = 0.5325 | -0.108
x2 = 0.589 | -0.106
x2 = 0.6312 | -0.1
x2 = 0.6983 | -0.091
x2 = 0.7567 | -0.0806
x2 = 0.8078 | -0.0667
x2 = 0.8654 | -0.0505
x2 = 0.9123 | -0.0344
